According to US20070178161A1, “Use of n-acetryl-d-glucosamine in treating and controlling non-specific inflammations caused by physical or chemical factors” (priority 2003, published 2007):

Columns and labels:
burn models = assay: Burn test; format: in vivo, Wistar rats; conditions: local application of solid powder, after 3 days, 10 rats per group (control: 2)
Description: 20 Wistar rats were randomly divided into two groups, i.e., control group and test group. The rats of both two groups were made as burn models by dressing gauze with hot distilled water. The rats of the control group were not treated, while the rats of the test group were locally treated by applying a solid powder of the compound of formula (I). After 3 days, 8 rats of the test group formed scab, while only 2 rats of the control group formed scab wherein liquor puris still accumulated below the scab.

[1] = test system: blunt torn thigh muscle tissue of hind limb; assay: Blunt tearing tests of animals; format: in vivo, Kunming mice; conditions: 1 ml, after 7 days
Protocol: 30 Kunming mice were randomly divided into two groups, i.e., 10 mice in control group and 20 mice in test group. The mice of both two groups were treated by a blunt tearing method, wherein a non-specific injury occurred in blunt torn thigh muscle tissue of hind limb of mice. […] 10 mice of control group were normally fed, while the mice of test group were administered with an aqueous solution of N-acetyl-D-glucosamine having a concentration of 5% by weight in a dosage of 1 ml, wherein 10 mice were administered by intra-peritoneal injection, another 10 mice were administered by intramuscular injection. […] The pathological changes of the mice of control group continuously developed or maintained on the original basis, wherein 4 mice suffered paralysis of the injured limb, and another 4 mice had flex and stretch dysfunction.

Proteus Mirabilis = assay: Promoting wave test (bio-wave model); format: cell-based; conditions: final concentration 0.5% in LB plate, 37° C., 9 hours
[2] = in vivo
Description: The toxicological test of the compound of formula (I) includes: • 1. Acute toxicity test: including tests of oral administration, intravenous injection administration, and maximum limit amount for administration; • 2. Ames test; • 3. Micronucleus test of mouse bone marrow cell; • 4. Abnormality test of mouse sperm; • 5. Aberration test of mouse testis chromosome; • 6. Chronic lethal test; • 7. Sub-chronic toxicity (feed for 90 days) test; • 8. Traditional deformity-inducing test.

[3] = test system: burned voluntary patients; assay: Test for treatment of burn; format: in vivo; conditions: sterilized powder on wound surface for 3 consecutive days, 10 patients
Description: In a collaborate project of the bum department of Third Military Medical University, a sterilized N-acetyl-D-glucosamine powder in a dose dependant upon wound surface area was applied to the wound surface of 10 burned voluntary patients for consecutive 3 days.

[4] = test system: patients with surgical trauma; assay: Test for treatment of surgical trauma; format: in vivo; conditions: ointment 1 g/10 g in Vaseline, painted on wounds for 3 consecutive days, 8 patients
Protocol: 8 Patients with surgical trauma, and most of them were facial and forearm abrasion. An ointment with a concentration of 1 g/10 g was prepared by mixing N-acetyl-D-glucosamine and Vaseline, and was painted on wounded parts in a dose dependent upon the area of wound surface for consecutive 3 days.

[5] = test system: patients with cold injury; assay: Test for treatment of cold injury; format: in vivo; conditions: 10 wt % aqueous solution, local, 1 ml to 10 ml per day
Protocol: 20 Patients with different levels of cold injury were divided into a test group and a control group. The patients in the test group were locally treated with a 10 wt % N-acetyl-D-glucosamine aqueous solution in a dose from 1 ml to 10 ml per day according to symptoms and individual conditions.

[6] = 5% aqueous solution, i.p. or i.m., 20 mice in test group (control: 4 of 10)

Row | Structure (SMILES) | rats of the test group that formed scab (burn models) | mice that suffered paralysis of the injured limb [1, 6] | mice with flex and stretch dysfunction [1, 6] | bio-wave pattern of colony (concentric rings) (Proteus Mirabilis) | dosage at which acute toxicosis reaction had not appeared [2] | movement of injured limb / mobility of test group ([1]; 5% by weight aqueous solution, intra-peritoneal or intramuscular injection, 20 mice) | wound symptoms (edema, blood vessels, secretion) [3] | rate of cambium growth toward the center of the wound ([3]; from the 4th day) | healing of facial abrasion [4] | scar formation [4] | recovery from cold injury [5]
1 | CC(=O)N[C@H]1C(O)O[C@H](CO)[C@@H](O)[C@@H]1O.Cl (stereo partly drawn) [N-acetyl-D-glucosamine hydrochloride] | 6 | – | – | – | – | – | – | – | – | – | –
2 | CC(=O)N[C@H]1C(O)O[C@H](CO)[C@@H](O)[C@@H]1O.O=S(=O)(O)O (stereo partly drawn) [N-acetyl-D-glucosamine sulfate] | – | 2 | 2 | – | – | – | – | – | – | – | –
3 | CC(=O)N[C@H]1C(O)O[C@H](CO)[C@@H](O)[C@@H]1O (stereo partly drawn) [compound of formula (I), N-acetyl-D-glucosamine] | 8 | one | – | many fine waves on each ring | more than 2 g/kg | could free-run | edema was alleviated, blood vessel shrank, and secretion was reduced | 1-2 mm per day | rapidly healed | no scar was found on face | early recovery, and then inflammation and edema were eliminated
